Measurements published in patent US7829560B2, “1,4-disubstituted naphthalenes as inhibitors of P38 MAP kinase” (Arqule, Inc., priority 2004, dated 2010).

Key:
[1] = system: TNFα release from THP-1 cells; assay: Inhibition of TNFα release from LPS-stimulated THP-1 cells, ELISA; format: cell-based; conditions: Homo sapiens, THP-1, THP-1 cells, read-out: [CELL] THP-1, IC50, TNF ALPHA, ELISA
Excerpt: Compounds of the invention are screened for the ability to inhibit TNFα and IL-1β release from THP-1 cells stimulated with lipopolysaccharide (LPS) in vitro. The ability of compounds to inhibit TNFα and IL-1β release in this in vitro assay is correlated with the inhibition of p38 activity and TNFα and IL-1β expression in vivo, and is therefore an indicator of potential in vivo therapeutic activity (Lee J. C. et al, Ann. N.Y. Acad. Sci. 696: 149-170, 1993 and Nature, 372: 739-746, 1994).
Materials: THP-1 cells from ATCC (TIB202) are maintained at 37° C., 5% CO2 in RPMI 1640 media (available from MediaTech, Herndon, Va.) containing 4.5 g/L glucose, supplemented with 10% fetal bovine serum, 1% penicillin/streptomycin and 50 μM β-mercaptoethanol.
Methods: Test compounds are initially dissolved in RPMI media with 1% DMSO (v/v). Compounds are then serially diluted in RPMI media for all subsequent dilutions. The assay is performed under sterile conditions. THP-1 cells at a culture density of 6-8×10^5 cells/ml are collected and resuspended in the RPMI media at 10^6 cells/ml containing 10% fetal bovine serum, no serum or 1% human serum albumin (HSA). 100 μl of resuspended cells are added to each well, which contain 100 μl of a test compound. Test compounds are prepared at twice the final concentration. Final DMSO concentration is no more than 0.5% (v/v). Cells are preincubated with compound for 30 minutes at 37° C., 5% CO2 prior to stimulation with lipopolysaccharide (LPS) (Sigma L-2880, 4 mg/ml stock in PBS). The final LPS concentration in each well is 10 or 30 μg/ml for TNFα and IL-1β release, respectively. Unstimulated control cell suspensions receive PBS vehicle only. Cell mixtures are incubated for 18 or 48 hours for TNFα and IL-1β prelease, respectively. 150 μl of supernatants are taken and transferred to a fresh plate and stored at −20° C. until further analysis. TNFα and IL-1β levels are measured using ELISA kits from Biosource (Catalog no. KHC3012 for TNFα; KAC1192 for IL-1β). A SpectraMAX 250 is used as the plate reader. Analysis is performed by non-linear regression to generate a dose response curve. The calculated IC50 value is the concentration of the test compound that causes a 50% decrease in TNFα or IL-1β levels.

p38α = molecular target: T1, p38α (Homo sapiens, UniProt Q16539); assay: p38 MAP Kinase assay: inhibition of ATF2 phosphorylation, ELISA; format: biochemical; conditions: for IC50: ATF2 phosphorylation, read-out: [ENZ] P38 ALPHA, IC50, ELISA; for inhibition at 10 µM: substrate ATF2, read-out: [ENZ] P38 ALPHA, PCT INH, ELISA (10 uM;ATF2) (Percent)
T1 construct: p38 MAP Kinases are recombinant human full-length proteins with an amino-terminal GST fusion; GST (N); purchased Upstate Biotechnology Inc; host or cells: E. coli
In short: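 GST-tagged full-length human p38 MAP kinase with GST-ATF2 (aa 19–96; 1.25 μM) and 40 μM ATP in HEPES pH 7.5 buffer, without (Method I) or with (Method II) 1% human serum albumin. Compound pre-incubated 15 min at room temperature; reaction 30 min at 37 °C; ATF2 Thr69 phosphorylation measured by ELISA (A450).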

T1 sequence (Q16539 whole entry, the tested form may be a part): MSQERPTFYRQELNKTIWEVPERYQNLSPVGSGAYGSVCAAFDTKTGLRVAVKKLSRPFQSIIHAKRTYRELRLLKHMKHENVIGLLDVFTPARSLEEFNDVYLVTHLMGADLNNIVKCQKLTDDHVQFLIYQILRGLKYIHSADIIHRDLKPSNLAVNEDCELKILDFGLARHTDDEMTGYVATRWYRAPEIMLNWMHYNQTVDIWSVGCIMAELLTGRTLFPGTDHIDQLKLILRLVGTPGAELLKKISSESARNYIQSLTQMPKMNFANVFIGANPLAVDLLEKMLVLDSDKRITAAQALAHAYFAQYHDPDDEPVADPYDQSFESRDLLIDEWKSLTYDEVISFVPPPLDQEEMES

O=C(Nc1ccc(OCCN2CCOCC2)c2ccccc12)c1cc(F)cc(N2CCc3ccccc3C2)c1 [Compound B200]
IC50 [1]: > 10 µM | IC50 (p38α): > 10 µM

CCN1CCC[C@H]1CNc1nccc(Oc2ccc(NC(=O)c3cc(F)cc(N4CCOCC4)c3)c3ccccc23)n1 [Compound B360]
IC50 [1]: 0.063 µM | IC50 (p38α): 0.0225 µM

Cc1ccc(-c2cccc(C(=O)Nc3ccc(OCCN4CCOCC4)c4ccccc34)c2)c(C)c1 [Compound B299]
IC50 [1]: > 10 µM | IC50 (p38α): > 10 µM

O=C(Nc1ccc(OCCN2CCOCC2)c2ccccc12)c1cccc(-c2cc(F)ccc2F)c1 [Compound B280]
IC50 [1]: 3.52 µM | IC50 (p38α): 5.6 µM

CCOC(=O)C1CCN(CCOc2ccc(NC(=O)c3cc(F)cc(N4CCCCC4)c3)c3ccccc23)CC1 [Compound B160, 1-{2-[4-(3-Fluoro-5-piperidin-1-yl-benzoylamino)-naphthalen-1-yloxy]-ethyl}-piperidine-4-carboxylic acid ethyl ester]
IC50 [1]: > 10 µM | inhibition at 10 µM (p38α): 58.5% | IC50 (p38α): 1.82 µM

O=C(Nc1ccc(OCCN2CCOCC2)c2ccccc12)c1ccnc(N2CCCC2)c1 [Compound B45, N-[4-(2-Morpholin-4-yl-ethoxy)-naphthalen-1-yl]-2-pyrrolidin-1-yl-isonicotinamide]
IC50 [1]: 1.19 µM | IC50 (p38α): 2.12 µM

O=C(Nc1ccc(OCCN2CCOCC2)c2ccccc12)c1cccc(CN2CCCCC2)c1 [Compound B55]
IC50 [1]: > 10 µM | IC50 (p38α): > 10 µM

O=C(Nc1ccc(OCCN2CCOCC2)c2ccccc12)c1cccc(-c2cccc(F)c2F)c1 [Compound B288]
IC50 [1]: 10.1 µM | IC50 (p38α): 2.72 µM

Cc1cc(C(=O)Nc2ccc(OCCN3CCOCC3)c3ccccc23)cc(N2CCC(C)CC2)n1 [Compound B154, 4,6′-Dimethyl-3,4,5,6-tetrahydro-2H-[1,2′]bipyridinyl-4′-carboxylic acid [4-(2-morpholin-4-yl-ethoxy)-naphthalen-1-yl]-amide]
IC50 [1]: 2.53 µM | inhibition at 10 µM (p38α): 71% | IC50 (p38α): 2.72 µM

CSc1nccc(Oc2ccc(NC(=O)c3cccc(-c4ccc(F)cc4C)c3)c3ccccc23)n1 [Compound B269, 4′-Fluoro-2′-methyl-biphenyl-3-carboxylic acid [4-(2-methylsulfanylpyrimidin-4-yloxy)-naphthalen-1-yl]-amide]
IC50 [1]: 0.152 µM | IC50 (p38α): 0.162 µM

O=C(Nc1ccc(OCCN2CCOCC2)c2ccccc12)c1cccc(-c2ccc(F)c(Cl)c2)c1 [Compound B275]
IC50 [1]: 3.57 µM | IC50 (p38α): 3.98 µM

Cc1cc(C(=O)Nc2ccc(OCCN3CCOCC3)c3ccccc23)cc(N2CCCC(C)C2)n1 (centres unmarked) [Compound B153, 3,6′-Dimethyl-3,4,5,6-tetrahydro-2H-[1,2′]bipyridinyl-4′-carboxylic acid [4-(2-morpholin-4-yl-ethoxy)-naphthalen-1-yl]-amide]
IC50 [1]: 1.03 µM | inhibition at 10 µM (p38α): 88% | IC50 (p38α): 0.622 µM

CC(C)(C)OC(=O)Nc1cccc(C(=O)Nc2ccc(OCCN3CCOCC3)c3ccccc23)c1 [Compound B63]
IC50 [1]: > 10 µM | IC50 (p38α): > 10 µM

O=C(Nc1ccc(OCCN2CCOCC2)c2ncccc12)c1cc(F)cc(N2CCOCC2)c1 [Compound B244]
IC50 [1]: > 10 µM | IC50 (p38α): > 10 µM

O=C(Nc1ccc(OCCN2CCOCC2)c2ccccc12)c1cc(F)cc(N2Cc3ccccc3C2)c1 [Compound B212]
IC50 [1]: > 10 µM | IC50 (p38α): > 10 µM

CN1CCC(Nc2nccc(Oc3ccc(NC(=O)c4cc(F)cc(N5CCCCC5)c4)c4ccccc34)n2)CC1 [Compound B409, 3-Fluoro-N-[4-({2-[(1-methylpiperidin-4-yl)amino]pyrimidin-4-yl}oxy)-1-naphthyl]-5-piperidin-1-ylbenzamide]
IC50 [1]: 0.0687 µM | IC50 (p38α): 0.0018 µM

COc1ccc(-c2cccc(C(=O)Nc3ccc(OCCN4CCOCC4)c4ccccc34)c2)cc1F [Compound B290]
IC50 [1]: > 10 µM | IC50 (p38α): > 10 µM

O=C(Nc1ccc(OCCN2CCOCC2)c2ccccc12)c1cccc(-c2ccccc2Cl)c1 [Compound B101]
IC50 [1]: 2.03 µM | inhibition at 10 µM (p38α): 87% | IC50 (p38α): 0.864 µM

N#Cc1cccc(-c2cccc(C(=O)Nc3ccc(OCCN4CCOCC4)c4ccccc34)c2)c1 [Compound B110]
IC50 [1]: 6.43 µM | inhibition at 10 µM (p38α): 61% | IC50 (p38α): > 1 µM

Cc1cccc(C(=O)Nc2ccc(OCCN3CCOCC3)c3ccccc23)c1Cl [Compound B82]
IC50 [1]: 10.7 µM | inhibition at 10 µM (p38α): 41.3%

CN(C(=N)N)c1nccc(Oc2ccc(NC(=O)c3cc(F)cc(N4CCCCC4)c3)c3ccccc23)n1 [Compound B413]
IC50 [1]: > 1 µM | IC50 (p38α): 0.0363 µM

O=C(Nc1ccc(Oc2ccnc(N3CCC(CO)CC3)n2)c2ccccc12)c1cc(F)cc(N2CCCCC2)c1 [Compound B415, 3-Fluoro-N-[4-({2-[4-(hydroxymethyl)piperidin-1-yl]pyrimidin-4-yl}oxy)-1-naphthyl]-5-piperidin-1-ylbenzamide]
IC50 [1]: 0.162 µM | IC50 (p38α): 0.0061 µM

O=C(Nc1ccc(OCCN2CCOCC2)c2ccccc12)c1cccc(-c2ccccc2F)c1 [Compound B278, 2′-Fluoro-biphenyl-3-carboxylic acid [4-(2-morpholin-4-yl-ethoxy)-naphthalen-1-yl]-amide]
IC50 [1]: 3.69 µM | IC50 (p38α): 0.935 µM

N#Cc1ccc(-c2cccc(C(=O)Nc3ccc(OCCN4CCOCC4)c4ccccc34)c2)cc1 [Compound B285]
IC50 [1]: 9.79 µM | IC50 (p38α): > 10 µM

CN(C)c1ccccc1C(=O)Nc1ccc(OCCN2CCOCC2)c2ccccc12 [Compound B35]
IC50 [1]: > 10 µM | IC50 (p38α): > 100 µM

CC(=O)N1CCN(c2cc(C(=O)Nc3ccc(OCCN4CCOCC4)c4ccccc34)ccn2)CC1 [Compound B123, 2-(4-Acetyl-piperazin-1-yl)-N-[4-(2-morpholin-4-yl-ethoxy)-naphthalen-1-yl]-isonicotinamide]
IC50 [1]: 6.15 µM | inhibition at 10 µM (p38α): 50.5% | IC50 (p38α): 5.75 µM

O=C(Nc1ccc(OCCN2CCOCC2)c2ccccc12)c1cnc(N2CCOCC2)c2ccccc12 [Compound B28]
IC50 [1]: > 10 µM | IC50 (p38α): > 100 µM

O=C(Nc1ccc(OCCN2CCCCC2)c2ccccc12)c1ccc(CN2CCOCC2)cc1 [Compound B2]
IC50 [1]: > 10 µM | IC50 (p38α): > 10 µM

Cc1cc(COc2ccc(NC(=O)c3cc(F)cc(N4CCC(C)CC4)c3)c3ccccc23)no1 [Compound B243]
IC50 [1]: > 10 µM | IC50 (p38α): > 10 µM

O=C(Nc1ccc(OCCN2CCOCC2)c2ccccc12)c1ccc2c(c1)OCCCO2 [Compound B62]
IC50 [1]: > 10 µM | IC50 (p38α): > 10 µM

O=C(Nc1ccc(CN2CCOCC2)c2ccccc12)c1cc(F)cc(N2CCOCC2)c1 [Compound B316, 3-Fluoro-5-morpholin-4-yl-N-(4-morpholin-4-ylmethyl-naphthalen-1-yl)-benzamide]
IC50 [1]: 0.879 µM | IC50 (p38α): 1.2 µM

CCN(C)c1cc(C(=O)Nc2ccc(OCCN3CCOCC3)c3ccccc23)ccn1 [Compound B133, 2-(Ethyl-methyl-amino)-N-[4-(2-morpholin-4-yl-ethoxy)-naphthalen-1-yl]-isonicotinamide]
IC50 [1]: 8.5 µM | inhibition at 10 µM (p38α): 52% | IC50 (p38α): 7.68 µM

O=C(Nc1ccc(OCCN2CCC3(CC2)OCCO3)c2ccccc12)c1cc(F)cc(N2CCCCC2)c1 [Compound B159, N-{4-[2-(1,4-Dioxa-8-aza-spiro[4.5]dec-8-yl)-ethoxy]-naphthalen-1-yl}-3-fluoro-5-piperidin-1-yl-benzamide]
IC50 [1]: > 10 µM | inhibition at 10 µM (p38α): 72.5% | IC50 (p38α): 1.09 µM

O=C(Nc1ccc(OCCN2CCOCC2)c2ccccc12)c1cccc(-c2ccc(C(F)(F)F)cc2)c1 [Compound B271]
IC50 [1]: 4.03 µM | IC50 (p38α): > 10 µM

CC(C)(C)C1CCC(Oc2cc(F)cc(C(=O)Nc3ccc(OCc4ccncc4)c4ccccc34)c2)CC1 (centres unmarked) [Compound B236]
IC50 [1]: > 10 µM | IC50 (p38α): > 10 µM

O=C(Nc1ccc(OCCN2CCOCC2)c2ccccc12)c1cc(Br)ccc1Cl [Compound B38]
IC50 [1]: > 10 µM | IC50 (p38α): > 10 µM
